Key:
[1] = test system: velvetleaf; assay: Test A pre-/postemergence herbicide test; format: in vivo, Abutilon theophrasti
Summary of the method: (§1)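 Seeds sown in sandy loam received a preemergence directed soil spray of compound in non-phytotoxic solvent with surfactant; postemergence plants (2–10 cm, one- to two-leaf stage) were sprayed to runoff at the same time. After ~10 days in greenhouse, injury was rated visually versus untreated controls (0 = no effect, 100 = complete control).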

[2] = test system: corn; assay: Test B pre-/postemergence herbicide test; format: in vivo, Zea mays; details: for Corn plant response rating: postemergence
Summary of the method: (§2)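 Response was scored visually 13 to 15 days after treatment against untreated greenhouse controls, 0 meaning no effect and 100 complete control. Formulations (solvent mixture plus surfactant) went onto soil after planting, onto foliage of 1- to 4-leaf plants, and onto 2-leaf plants in a flooded paddy set including rice and barnyardgrass.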

[3] = test system: large crabgrass; assay: Test B pre-/postemergence herbicide test; format: in vivo, Digitaria sanguinalis; details: for Crabgrass, Large plant response rating: postemergence
Summary of the method: as §2

[4] = test system: barnyardgrass; assay: Test B flooded paddy test; format: in vivo, Echinochloa crus-galli; details: 1000 g ai/ha, scale 0 to 100 (0 no effect, 100 complete control)
Summary of the method: (§3)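 Scale 0–100: zero equals no visible effect, 100 complete control, judged by eye relative to controls. Timing: 13 to 15 days in greenhouse post-treatment. Growth stage at spraying: two leaves (paddy) or one to four leaves, 2–18 cm (postemergence).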

[5] = test system: giant foxtail; assay: Test A pre-/postemergence herbicide test; format: in vivo, Setaria faberi
Summary of the method: as §1

[6] = test system: redroot pigweed; assay: Test A pre-/postemergence herbicide test; format: in vivo, Amaranthus retroflexus
Summary of the method: as §1

[7] = test system: small flower umbrella sedge; assay: Test B flooded paddy test; format: in vivo, Cyperus difformis; details: 1000 g ai/ha, scale 0 to 100 (0 no effect, 100 complete control)
Summary of the method: as §3

[8] = test system: morningglory; assay: Test B pre-/postemergence herbicide test; format: in vivo, Ipomoea coccinea; details: for Morningglory plant response rating: postemergence
Summary of the method: (§4)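 Formulation: non-phytotoxic solvent mix with surfactant. Timing: preemergence on seed and postemergence on 2–18 cm plants, applied concurrently. Readout after 13–15 d greenhouse: visual 0–100 control rating against controls.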

[9] = test system: wild oat; assay: Test B postemergence herbicide test; format: in vivo, Avena fatua; details: postemergence
Summary of the method: (§5)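 Each value is a visual 0–100 response rating taken against controls 13 to 15 days after treatment in the greenhouse. Plants received formulated chemical postemergence at the 1- to 4-leaf stage or, in flooded paddy, at the 2-leaf stage.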

[10] = test system: cocklebur; assay: Test B pre-/postemergence herbicide test; format: in vivo, Xanthium strumarium; details: for Cocklebur plant response rating: postemergence
Summary of the method: as §4

[11] = test system: large crabgrass; assay: Test A pre-/postemergence herbicide test; format: in vivo, Digitaria sanguinalis
Summary of the method: as §1

[12] = test system: ducksalad; assay: Test B flooded paddy test; format: in vivo, Heteranthera limosa; details: 1000 g ai/ha, scale 0 to 100 (0 no effect, 100 complete control)
Summary of the method: as §3

[13] = test system: pigweed; assay: Test B pre-/postemergence herbicide test; format: in vivo, Amaranthus retroflexus; details: for Pigweed plant response rating: postemergence
Summary of the method: as §2

[14] = test system: wheat; assay: Test B postemergence herbicide test; format: in vivo, Triticum aestivum; parameters: key to Wheat plant response rating: 0 = no effect, 100 = complete control; details: postemergence
Summary of the method: as §5

[15] = test system: morningglory; assay: Test A pre-/postemergence herbicide test; format: in vivo, Ipomoea spp.
Summary of the method: as §1

[16] = test system: lambsquarters; assay: Test B pre-/postemergence herbicide test; format: in vivo, Chenopodium album; details: for Lambsquarters plant response rating: postemergence
Summary of the method: as §2

[17] = test system: blackgrass; assay: Test B postemergence herbicide test; format: in vivo, Alopecurus myosuroides; details: postemergence
Summary of the method: as §3

[18] = test system: giant foxtail; assay: Test B pre-/postemergence herbicide test; format: in vivo, Setaria faberi; details: for Foxtail, Giant plant response rating: postemergence
Summary of the method: as §2

[19] = test system: Surinam grass; assay: Test B pre-/postemergence herbicide test; format: in vivo, Urochloa decumbens; details: for Surinam Grass plant response rating: postemergence
Summary of the method: as §2

[20] = test system: barnyardgrass; assay: Test B pre-/postemergence herbicide test; format: in vivo, Echinochloa crus-galli; details: for Barnyardgrass plant response rating: postemergence
Summary of the method: as §4

[21] = test system: rice; assay: Test B flooded paddy test; format: in vivo, Oryza sativa; details: 1000 g ai/ha, scale 0 to 100 (0 no effect, 100 complete control)
Summary of the method: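 Postemergence plants were sprayed with formulated test chemicals at 2 to 18 cm height (1- to 4-leaf stage); paddy species were grown to the 2-leaf stage. After 13 to 15 days in a greenhouse, injury was rated visually against untreated controls on a 0–100 scale (0 = no effect, 100 = complete control).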

[22] = test system: barnyardgrass; assay: Test A pre-/postemergence herbicide test; format: in vivo, Echinochloa crus-galli
Summary of the method: as §1

[23] = test system: velvetleaf; assay: Test B pre-/postemergence herbicide test; format: in vivo, Abutilon theophrasti; details: for Velvetleaf plant response rating: postemergence
Summary of the method: as §2

[24] = test system: rice; assay: Test B pre-/postemergence herbicide test; format: in vivo, Oryza sativa; details: 0 = no effect, 100 = complete control, preemergence
Summary of the method: as §2

[25] = Postemergence, 500 g ai/ha, 0 to 100 scale, 0 no effect, 100 complete control
[26] = Postemergence, 2000 g ai/ha, 0 to 100 scale, 0 no effect, 100 complete control
[27] = Preemergence, 2000 g ai/ha, visual rating, 0 to 100 scale (0 no effect, 100 complete control)
[28] = preemergence, 500 g ai/ha, visual injury, 0 to 100 scale (0 no effect, 100 complete control)
[29] = 125 g ai/ha, 0 = no effect, 100 = complete control, preemergence
[30] = 500 g ai/ha, visual rating, 0 = no effect, 100 = complete control, preemergence
[31] = 125 g ai/ha, visual rating, scale 0 (no effect) to 100 (complete control)
[32] = 500 g ai/ha, scale 0 to 100, 0 is no effect, 100 is complete control

CCN(C)C(=O)c1ccc(F)c(NC(=O)c2cc(C(C)(C)C)nn2CC)n1 [Compound 280]
55: Pigweed plant response rating [6, 25]
30: Plant response rating, Velvetleaf [1, 26] | Velvetleaf plant response rating [1, 27] | Sedge, Umbrella plant response rating [7] | Cocklebur plant response rating [10, 32] | Wheat plant response rating [14, 32]
20: Velvetleaf plant response rating [1, 25] | Oat, Wild plant response rating [9, 32] | Ducksalad plant response rating [12] | Pigweed plant response rating [13, 32] | Wheat plant response rating [14, 31] | Lambsquarters plant response rating [16, 32] | Blackgrass plant response rating [17, 31] | Blackgrass plant response rating [17, 32] | Plant response rating, Velvetleaf [23, 30] | Velvetleaf plant response rating [23, 32]
45: Foxtail, Giant plant response rating [5, 27] | Barnyardgrass plant response rating [22, 27]
5: Foxtail, Giant plant response rating [5, 28] | Crabgrass, Large plant response rating [11, 25]
70: Plant response rating, Pigweed [6, 26] | Pigweed plant response rating (0 to 100 scale) [13, 29]
80: Plant response rating, Lambsquarters [16, 30]
10: Corn plant response rating [2, 32] | Plant response rating, Crabgrass, Large [3, 30] | Morningglory plant response rating [8, 32] | Oat, Wild plant response rating [9, 31] | Pigweed plant response rating [13, 31] | Plant response rating, Morningglory [15, 26] | Lambsquarters plant response rating [16, 31] | Plant response rating, Foxtail, Giant [18, 30] | Plant response rating, Surinam Grass [19, 30] | Surinam Grass plant response rating [19, 32] | Plant response rating, Barnyardgrass [20, 30] | Velvetleaf plant response rating (0 to 100 scale) [23, 29] | Velvetleaf plant response rating [23, 31] | Plant response rating, Rice ([24]; 500 g ai/ha, visual rating)
100: Plant response rating, Pigweed [13, 30]
25: Crabgrass, Large plant response rating [11, 27] | Plant response rating, Barnyardgrass [22, 26]
90: Pigweed plant response rating [6, 27]
15: Pigweed plant response rating [6, 28] | Morningglory plant response rating [15, 27]
0: Velvetleaf plant response rating [1, 28] | Corn plant response rating (0 to 100 scale) [2, 29] | Plant response rating, Corn [2, 30] | Corn plant response rating [2, 31] | Crabgrass, Large plant response rating (0 to 100 scale) [3, 29] | Crabgrass, Large plant response rating [3, 31] | Crabgrass, Large plant response rating [3, 32] | Barnyardgrass plant response rating [4] | Foxtail, Giant plant response rating [5, 25] | Plant response rating, Foxtail, Giant [5, 26] | Morningglory plant response rating (0 to 100 scale) [8, 29] | Plant response rating, Morningglory [8, 30] | Morningglory plant response rating [8, 31] | Cocklebur plant response rating (0 to 100 scale) [10, 29] | Plant response rating, Cocklebur [10, 30] | Cocklebur plant response rating [10, 31] | Plant response rating, Crabgrass, Large [11, 26] | Crabgrass, Large plant response rating [11, 28] | Morningglory plant response rating [15, 25] | Morningglory plant response rating [15, 28] | Foxtail, Giant plant response rating (0 to 100 scale) [18, 29] | Foxtail, Giant plant response rating [18, 31] | Foxtail, Giant plant response rating [18, 32] | Surinam Grass plant response rating (0 to 100 scale) [19, 29] | Surinam Grass plant response rating [19, 31] | Barnyardgrass plant response rating (0 to 100 scale) [20, 29] | Barnyardgrass plant response rating [20, 31] | Barnyardgrass plant response rating [20, 32] | Rice plant response rating [21] | Barnyardgrass plant response rating [22, 25] | Barnyardgrass plant response rating [22, 28] | Rice plant response rating (0 to 100 scale) ([24]; 125 g ai/ha)

— US20060069132A1, “Azolecarboxamide herbicides” (priority 2004, published 2006)
